According to US8889709B2, “Use of isoQC inhibitors in the treatment and prevention of inflammatory diseases or conditions” (Probiodrug AG, priority 2006, dated 2014):
Where two headings read alike, the source gives them in different places. One block for each molecule: values may come before it. Peptide text beside a SMILES is read from it.

Legend:
[1] = tested on: Thioglycollate-induced peritonitis in C57/Bl6J mice; assay: Thioglycollate-induced peritonitis in C57/Bl6J wild type mice; assay type: in vivo, mouse
Description: C57/Bl6J mice were purchased from Charles River Laboratories (Kisslegg, Germany). For each experiment, the mice were age- and sex-matched. An intraperitoneal injection of 25 ml/kg body weight of sterile 8% (w/v) thioglycollate (Sigma-Aldrich) was used to induce peritonitis. 30 min before the thioglycollate-stimulus, animals were injected with different doses of isoQC-inhibitor isoQC-I. For lavage of the peritoneum, the animals were anesthetized using 2% isofluran. The peritoneal exudates were collected by washing the peritoneum with 8 ml of sterile PBS 4 h after thioglycollate injection. Cells of 1 ml lavage fluid were collected by centrifugation (300 g, 10 min) and stained according to the manufacturer's instructions for BD Trucount tubes (BD Trucount tubes; catalog no. 340334; BD Biosciences, Heidelberg, Germany). Cells were blocked with CD16/32 (Caltag) at 4° C. for 15 min. and stained with 7/4-FITC (Serotec, Dusseldorf, Germany)/Ly6G-PE (Miltenyi, Bergisch Gladbach, Germany) as well as IgG1-PE (BD)/IgG2a-FITC (Miltenyi) as isotype controls at room temperature for 15 min. After staining, erythrocytes were lysed with BD FACSLyse (BD) in the dark at room temperature for 15 min. After washing with PBS, flow cytometric analysis was performed on a BD FACSCalibur (BD) based on 5000 beads per sample as reference standard.

mouse-isoQC [2] = biological target: T1, mouse-isoQC (Mus musculus, UniProt Q8BH73, I74N); assay: Inactivation/reactivation of mouse-isoQC by chelators and metal ions; conditions: for reactivation of mouse-isoQC apoenzyme: metal added after removal of the chelator
T1 sequence (Q8BH73 61-383 I74N): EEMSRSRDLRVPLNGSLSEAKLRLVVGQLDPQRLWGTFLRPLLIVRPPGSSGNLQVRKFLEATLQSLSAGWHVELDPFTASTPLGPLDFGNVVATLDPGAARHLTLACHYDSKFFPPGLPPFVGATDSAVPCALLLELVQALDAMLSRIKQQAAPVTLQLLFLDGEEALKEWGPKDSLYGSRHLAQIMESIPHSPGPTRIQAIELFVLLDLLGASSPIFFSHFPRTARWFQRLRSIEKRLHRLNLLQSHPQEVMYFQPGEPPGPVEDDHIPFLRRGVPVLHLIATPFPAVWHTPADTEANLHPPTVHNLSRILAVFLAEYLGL
Description: The final dialysis was performed for 5 h. All buffers were prepared in metal-free polystyrene containers. Subsequently, the apoenzyme was centrifuged at 20.000×g for 1 h at 4° C., and the protein concentration was determined by UV absorbance.

human isoQC [3] = biological target: T2, human isoQC (Homo sapiens, UniProt Q9NXS2); assay: Inactivation of human isoQC by heterocyclic chelators; assay type: biochemical
Target sequence in this assay (Q9NXS2 whole entry): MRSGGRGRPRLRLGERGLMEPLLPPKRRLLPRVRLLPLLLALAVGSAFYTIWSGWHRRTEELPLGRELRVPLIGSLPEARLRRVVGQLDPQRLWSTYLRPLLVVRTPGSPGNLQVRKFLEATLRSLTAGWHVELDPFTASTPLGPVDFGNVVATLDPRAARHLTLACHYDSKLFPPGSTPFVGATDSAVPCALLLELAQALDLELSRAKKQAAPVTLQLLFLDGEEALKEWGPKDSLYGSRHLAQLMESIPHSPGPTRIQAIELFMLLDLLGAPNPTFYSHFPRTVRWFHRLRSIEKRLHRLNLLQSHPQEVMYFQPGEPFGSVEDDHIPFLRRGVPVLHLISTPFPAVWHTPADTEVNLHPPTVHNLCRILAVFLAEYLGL

human isoQC [4] = biological target: T2, human isoQC; assay: Inhibitor assay, human isoQC (Ki/IC50, competitive inhibition)
Description: (§4) All measurements were performed with a NovoStar reader for microplates (BMG Labtechnologies) at 30° C. […] Excitation/emission wavelengths were 320/410 nm.

human isoQC [5] = assay: as above; conditions: isoQC vs human QC
Description: as §4

human isoQC [6] = biological target: T3, human isoQC (Homo sapiens, UniProt Q9NXS2, C369A/I73N); assay: as above
T3 sequence (Q9NXS2 48-382 I73N/C369A): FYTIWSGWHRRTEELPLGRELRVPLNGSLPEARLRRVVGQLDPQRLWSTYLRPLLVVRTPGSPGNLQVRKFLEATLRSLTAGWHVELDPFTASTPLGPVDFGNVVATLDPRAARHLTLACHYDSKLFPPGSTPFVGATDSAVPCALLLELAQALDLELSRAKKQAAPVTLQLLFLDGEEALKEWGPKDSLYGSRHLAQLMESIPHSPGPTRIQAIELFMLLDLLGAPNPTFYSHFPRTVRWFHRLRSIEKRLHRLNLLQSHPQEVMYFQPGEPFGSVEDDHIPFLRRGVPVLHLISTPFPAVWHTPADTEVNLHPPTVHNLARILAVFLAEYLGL
Description: as §4

human QC = human QC (Homo sapiens, UniProt Q16769); assay: Inhibitor assay, human QC (Ki/IC50, competitive inhibition)
human QC, sequence (Q16769 29-361): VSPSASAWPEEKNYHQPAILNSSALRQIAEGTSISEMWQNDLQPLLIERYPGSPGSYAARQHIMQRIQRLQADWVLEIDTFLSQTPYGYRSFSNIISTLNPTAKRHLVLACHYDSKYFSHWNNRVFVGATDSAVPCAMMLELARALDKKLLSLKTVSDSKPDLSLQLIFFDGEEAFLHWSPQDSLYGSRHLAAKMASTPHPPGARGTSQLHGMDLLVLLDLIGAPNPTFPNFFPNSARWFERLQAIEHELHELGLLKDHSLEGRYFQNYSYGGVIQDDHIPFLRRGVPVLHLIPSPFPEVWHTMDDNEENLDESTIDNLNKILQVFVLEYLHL
Description: as §4

human isoQC [7] = biological target: T3, human isoQC; assay: Kinetic evaluation of peptide substrates of human isoQC; assay type: biochemical; set-up: The cDNA of the mature human isoQC starting with codon 30 (counting from methionine II); His6 (C-His) (C); yeast alpha-factor secretion signal (YSS) (N); made in house; host or cells: Pichia pastoris X-33; conditions: human isoQC expressed in P. pastoris (YSShisoQC)
Description: (§1) Excitation/emission wavelengths were 320/410 nm.
(§2) Excitation/emission wavelengths were 380/460 nm.
(§3) Kinetic data were evaluated using GraFit software.

human isoQC [8] = biological target: T2, human isoQC; assay: as above; assay type: biochemical; set-up: The cDNA of the mature human isoQC starting with codon 30 (counting from methionine II); His6 (C-His) (C); yeast alpha-factor secretion signal (YSS) (N); made in house; host or cells: Pichia pastoris X-33; conditions: human isoQC expressed in E. coli BL21 (hisoQCdt)
Description: as §1, §2, §3
Target sequence in this assay (Q9NXS2 48-382): as the sequence (Q9NXS2 48-382 I73N/C369A) above, with N26I, A322C counted along it

mouse-isoQC [9] = biological target: T1, mouse-isoQC; assay: Kinetic parameters of conversion of peptide substrates by murine isoQC; assay type: biochemical; set-up: starting with codon 43 (Glu 43) of the open reading frame (counting from methionine II); yeast alpha-factor secretion signal (N); made in house; host or cells: Pichia pastoris X-33
Description: as §1, §2, §3

Molecule: CCCOc1ccc(C2C(=O)NC(=O)N2c2ccc3[nH]cnc3c2)cc1 (racemic) [Example 6, 1-(1H-benzo[d]imidazol-5-yl)-5-(4-propoxyphenyl)imidazolidine-2,4-dione]
- infiltrating monocytes in the peritoneum (FACS) ([1]; 6 mg/kg ip): reduction
- infiltrating monocytes in the peritoneum (FACS) ([1]; 18 mg/kg ip): reduced the infiltration of monocytes down to baseline values
- pGlu-MCP-1 in lavage fluid ([1]; FIG. 25b, different doses): reduction of pGlu-content
- infiltrating monocytes in the peritoneum (FACS) ([1]; different doses ip 30 min before thioglycollate, lavage 4 h after): dose-dependent reduction

- inactivation of mouse-isoQC (mouse-isoQC [2]; dialysis against buffer containing 5 mM 1,10-phenantrolin and 5 mM EDTA): inactivation
- inactivation of human isoQC (human isoQC [3]): inactivated
Molecule: c1cnc2c(c1)ccc1cccnc12 [1,10-phenantroline]

Molecule: COc1ccc(NC(=S)NCCCn2ccnc2)cc1OC.Cl [1-(3-(1H-imidazol-1-yl)propyl)-3-(3,4-dimethoxyphenyl)thiourea hydrochloride]
- Ki (human isoQC [4]): 480 ± 30 nM
- Ki (human isoQC [4]; read-out: Ki-value, inhibition of human isoQC-catalyzed conversion of H-Gln-AMC into pGlu-AMC, FIG. 1, Michaelis-Menten model, linear competitive inhibition, inhibitor 0-5 μM): 240 nM
- drop in Ki, human isoQC compared with human QC (human isoQC [5]): 10 fold

- Ki (human isoQC [6]): 82000 ± 3000 nM
- Ki (human isoQC [4]): 80000 ± 5000 nM
- Ki (human QC): 39.7 ± 0.2 µM
Molecule: Cn1ccnc1 [1-Methylimidazole]

Molecule: c1ccc2[nH]cnc2c1 [Benzimidazole]
- Ki (human isoQC [6]): 250000 ± 5000 nM
- Ki (human isoQC [4]): 200000 ± 8000 nM
- Ki (human QC; read-out: Ki (μM) hQC, competitive inhibition): 138 ± 4 µM

- inactivation of human isoQC (human isoQC [3]): inactivated
Molecule: O=C(O)CN(CCN(CC(=O)O)CC(=O)O)CC(=O)O [EDTA]

- IC50 (human isoQC [6]): 3.3 nM
- Ki (human isoQC [6]): 1.62 nM
Molecule: O=C1NC(=O)N(c2ccc3[nH]cnc3c2)C1c1ccc2nsnc2c1 (centres unmarked) [Example 1, 5-(benzo[c][1,2,5]thiadiazol-6-yl)-1-(1H-benzo[d]imidazol-5-yl)imidazolidine-2,4-dione]

- IC50 (human isoQC [6]): 29.6 nM
- Ki (human isoQC [6]): 16.4 nM
Molecule: O=C1NC(=O)N(c2ccc3[nH]cnc3c2)C1c1ccccc1 (centres unmarked) [Example 2, 1-(1H-benzo[d]imidazol-5-yl)-5-phenylimidazolidine-2,4-dione]

- IC50 (human isoQC [6]): 150 nM
- Ki (human isoQC [6]): 25.8 nM
Molecule: O=C1NC(=O)N(c2ccc3[nH]cnc3c2)C1c1cc(C(F)(F)F)ccc1F (centres unmarked) [Example 4, 1-(1H-benzo[d]imidazol-5-yl)-5-(2-fluoro-5-(trifluoromethyl)phenyl)imidazolidine-2,4-dione]

- IC50 (human isoQC [6]): 66 nM
- Ki (human isoQC [6]): 8.27 nM
Molecule: O=C1NC(=O)N(c2ccc3[nH]cnc3c2)C1c1cc(F)ccc1Br (centres unmarked) [Example 5, 1-(1H-benzo[d]imidazol-5-yl)-5-(2-bromo-5-fluorophenyl)imidazolidine-2,4-dione]

- IC50 (human isoQC [6]): 1400 nM
- Ki (human isoQC [6]): 35.2 nM
Molecule: O=C1NC(=O)N(c2ccc3[nH]cnc3c2)C1c1ccc(Cl)c(C(F)(F)F)c1 (centres unmarked) [Example 7, 1-(1H-benzo[d]imidazol-5-yl)-5-(4-chloro-3-(trifluoromethyl)phenyl)imidazolidine-2,4-dione]

- IC50 (human isoQC [6]): 30.3 nM
- Ki (human isoQC [6]): 2.66 nM
Molecule: COc1ccc(C2C(=O)NC(=O)N2c2ccc3[nH]cnc3c2)cc1O (centres unmarked) [Example 9, 1-(1H-benzo[d]imidazol-5-yl)-5-(3-hydroxy-4-methoxyphenyl)imidazolidine-2,4-dione]

- IC50 (human isoQC [6]): 58 nM
- Ki (human isoQC [6]): 10.5 nM
Molecule: O=C1NC(=O)N(c2ccc3[nH]cnc3c2)C1c1cccc(Cl)c1 (centres unmarked) [Example 12, 1-(1H-benzo[d]imidazol-5-yl)-5-(3-chlorophenyl)imidazolidine-2,4-dione]

- IC50 (human isoQC [6]): 52 nM
- Ki (human isoQC [6]): 6.71 nM
Molecule: O=C1NC(=O)N(c2ccc3[nH]cnc3c2)C1c1ccc(Cl)cc1 (centres unmarked) [Example 13, 1-(1H-benzo[d]imidazol-5-yl)-5-(4-chlorophenyl)imidazolidine-2,4-dione]

- IC50 (human isoQC [6]): 40 nM
- Ki (human isoQC [6]): 3.07 nM
Molecule: O=C1NC(=O)N(c2ccc3[nH]cnc3c2)C1c1ccccc1Cl (centres unmarked) [Example 14, 1-(1H-benzo[d]imidazol-5-yl)-5-(2-chlorophenyl)imidazolidine-2,4-dione]

- IC50 (human isoQC [6]): 60 nM
- Ki (human isoQC [6]): 12.3 nM
Molecule: O=C1NC(=O)N(c2ccc3[nH]cnc3c2)C1c1ccc(F)cc1 (centres unmarked) [Example 15, 1-(1H-benzo[d]imidazol-5-yl)-5-(4-fluorophenyl)imidazolidine-2,4-dione]

- IC50 (human isoQC [6]): 57.6 nM
- Ki (human isoQC [6]): 4.14 nM
Molecule: O=C1NC(=O)N(c2ccc3[nH]cnc3c2)C1c1ccc2c(c1)OCCO2 (centres unmarked) [Example 16, 1-(1H-benzo[d]imidazol-5-yl)-5-(2,3-dihydrobenzo[b][1,4]dioxin-7-yl)imidazolidine-2,4-dione]

- IC50 (human isoQC [6]): 166 nM
- Ki (human isoQC [6]): 40.9 nM
Molecule: O=C1NC(=O)C2(Cc3ccccc3C2)N1c1ccc2[nH]cnc2c1 [Example 32, 3-(1H-benzimidazol-5-yl)-1′,3′-dihydro-2H,5H-spiro[imidazolidine-4,2′-indene]-2,5-dione]

- IC50 (human isoQC [6]): 58.3 nM
- Ki (human isoQC [6]): 11.4 nM
Molecule: O=C1NC(=S)C(c2ccc(Cl)cc2)N1c1ccc2[nH]cnc2c1 (centres unmarked) [Example 40, 1-(1H-benzo[d]imidazol-5-yl)-5-(4-chlorophenyl)-4-thioxoimidazolidin-2-one]

- IC50 (human isoQC [6]): 163 nM
- Ki (human isoQC [6]): 34.5 nM
Molecule: O=C1NC(=S)C(c2ccc(F)c(F)c2F)N1c1ccc2nc[nH]c2c1 (centres unmarked) [Example 41, 1-(1H-benzo[d]imidazol-5-yl)-5-(2,3,4-trifluorophenyl)-4-thioxoimidazolidin-2-one]

- Km (human isoQC [7]): 0.03 ± 0.0064 mM
- kcat (s^−1) YSShisQC (human isoQC [7]): 3.72 ± 0.44 s⁻¹
- Km (human isoQC [8]): 0.01 ± 0.0009 mM
- kcat (s^−1) hisoQCdt (human isoQC [8]): 1.07 ± 0.03 s⁻¹
- Km (mouse-isoQC [9]): 0.022 ± 0.001 mM
- kcat (s^−1) m-isoQC (mouse-isoQC [9]): 6.98 ± 0.35 s⁻¹
Molecule: Cc1cc(=O)oc2cc(NC(=O)[C@@H](N)CCC(N)=O)ccc12 [Q-AMC, H-Gln-AMC]

- Km (human isoQC [7]): 0.035 ± 0.0005 mM
- kcat (s^−1) YSShisQC (human isoQC [7]): 8.16 ± 0.87 s⁻¹
- Km (human isoQC [8]): 0.03 ± 0.002 mM
- kcat (s^−1) hisoQCdt (human isoQC [8]): 3.37 ± 0.12 s⁻¹
- Km (mouse-isoQC [9]): 0.032 ± 0.003 mM
- kcat (s^−1) m-isoQC (mouse-isoQC [9]): 17.48 ± 0.97 s⁻¹
Molecule: NC(=O)CC[C@H](N)C(=O)Nc1ccc2ccccc2c1 [Q-βNA, H-Gln-βNA]

- Km (human isoQC [7]): 0.16 ± 0.01 mM
- Km (human isoQC [8]): 0.63 ± 0.052 mM
Molecule: CC(C)C[C@H](NC(=O)[C@H](CC(=O)O)NC(=O)[C@H](CCC(=O)O)NC(=O)[C@@H](N)CCC(N)=O)C(=O)O [QEDL] (H-QEDL-OH)

- Km (human isoQC [7]): 0.61 ± 0.064 mM
- Km (human isoQC [8]): 0.7 ± 0.13 mM
Molecule: NC(=O)CC[C@H](N)C(=O)N[C@@H](CCC(=O)O)C(=O)O [QE] (H-Gln-Glu-OH)

- Km (human isoQC [7]): 0.104 ± 0.025 mM
- Km (human isoQC [8]): 0.11 ± 0.016 mM
Molecule: C[C@H](NC(=O)[C@H](Cc1ccccc1)NC(=O)[C@@H](N)CCC(N)=O)C(=O)O [QFA] (H-Gln-Phe-Ala-OH)

- Km (human isoQC [7]): 0.36 ± 0.047 mM
- Km (human isoQC [8]): 0.42 ± 0.04 mM
- Km (mouse-isoQC [9]): 0.16 ± 0.01 mM
Molecule: NC(=O)CC[C@H](N)C(=O)NCC(=O)O [QG] (H-Gln-Gly-OH)

- Km (human isoQC [7]): 0.11 ± 0.007 mM
- Km (human isoQC [8]): 0.11 ± 0.027 mM
Molecule: NC(=O)CC[C@H](NC(=O)[C@@H](N)CCC(N)=O)C(=O)O [QQ] (H-Gln-Gln-OH)

- reactivation of mouse-isoQC apoenzyme (mouse-isoQC [2]): complete reactivation
Molecule: O=S(=O)([O-])[O-].[Zn+2] [ZnSO4]

Molecule: O=C(O)c1cccc(C(=O)O)n1 [dipicolinic acid]
- inactivation of human isoQC (human isoQC [3]): inactivated

- reactivation of mouse-isoQC apoenzyme (mouse-isoQC [2]): No reactivation
Molecule: calcium

- reactivation of mouse-isoQC apoenzyme (mouse-isoQC [2]): No reactivation
Molecule: manganese
